Results on two substances are retold here after article PMC9788509, “Arginine Homopeptide of 11 Residues as a Model of Cell-Penetrating Peptides in the Interaction with Bacterial Membranes” (Membranes, 2022).

In data set [1] the test system is blood samples obtained from a healthy individual. In kind it is cell-based. Here is the method: The hemolytic activity of the peptides was obtained, according to a previously described procedure. Briefly, blood samples obtained from a healthy individual were centrifuged at 2000 g for 10 min at 4 °C and then washed with PBS 1X three times. The supernatant was diluted with PBS 1X until reaching a concentration of 6 × 10^8 cells/mL. Assays were performed in duplicate with the peptides at concentrations of 5 and 50 µM, including AMP from Bothrops asper. Triton X-100 (Sigma Aldrich) at 0.5% was used as positive control and PBS 1X as negative control. The assay is performed by mixing 65 µL of the cell suspension with 65 µL of each peptide at the indicated concentrations, and 65 µL of each control, incubating at 37 °C for 1 h. The samples are centrifuged at 3000 g for 5 min; 80 µL of supernatant is taken and placed in a 96-well plate together with 80 µL of milliQ water to finally measure its absorbance at 540 nm.
Hemolysis is calculated according to Equation (1). (1) %Hemolysis=[…]

Data set [2] relates to S. aureus. Briefly: Membrane permeabilization by SYTOX green assay. Format: cell-based, Staphylococcus aureus. Conditions: S. aureus 1 × 10^6 CFU/mL in PBS 1X; 90 µL bacteria, 5 µL peptide at 200 µM, 5 µL SYTOX Green at 100 µM; 30 cycles of one minute at 30 °C; triplicate. Here is the method:
(§1) To verify the effect of peptides on cell membrane integrity, a SYTOX green uptake assay was used, as previously described. Briefly, E coli and S. aureus cultures in exponential phase of growth were centrifuged at 2000× g for 5 min and washed with PBS 1X to prepare a solution at a concentration of 1 × 10^6 CFU/mL in PBS 1X. Then, in 100 μL qPCR tubes, 90 µL of the bacterial solution, 5 µL of peptide at 200 µM and 5 µL of SYTOX Green dye at 100 µM were added. The q-PCR tubes were placed in an Applied Biosystems StepOnePlus™ Real-Time PCR Systems thermocycler, programmed with 30 cycles for one minute at 30 °C, using the Syber green filter, recording the fluorescence data at the end of each cycle. Each assay was performed in triplicate.

The test system of data set [3] is E coli. Briefly: Membrane permeabilization by SYTOX green assay. In kind it is cell-based, Escherichia coli. Conditions: E. coli 1 × 10^6 CFU/mL in PBS 1X; 90 µL bacteria, 5 µL peptide at 200 µM, 5 µL SYTOX Green at 100 µM; 30 cycles of one minute at 30 °C; triplicate. The procedure: as §1

With triton X-100, the Hemolytic activity result in data set [1] is “hemolysis was only observed”.
For the substance KKWRWWLKALAKK, the “SYTOX green fluorescence (membrane permeabilization)” value in data set [2] and in data set [3] was “high fluorescence” throughout.
